Measured values: publication PMC5595280, “Cytotoxicity and anti-tumor effects of new ruthenium complexes on triple negative breast cancer cells” (PLoS ONE, 2017)

How the values were obtained:
MDA-MB-231 cells [1] = assay: Wound healing migration assay; format: cell-based, human; details: 5, 10 and 20 μM, 24 and 48 h
Method: The effects of complex (4) on tumor cell migration was investigated by two methods, wound healing and transwell assays using Boyden chambers. For wound healing, MDA-MB-231 cells (2 x10^5/mL) were plated in 12-wells plates and incubated properly until the culture reached 100% of confluence. Afterwards, a straight scratch was made with a sterile pipette tip and cells were washed with culture medium to remove unbound cells and debris. Cells were incubated with complex (4) 5, 10 and 20 μM for 24 and 48 h. Cells were viewed using an inverted microscope (Nikon, T5100) at 40× total magnification and images were captured (Moticam, 1000-S camera) at 0 h, 24 h and 48 h. Closure area of migrating cells was measured using Image J software, and the percentage of wound closure was calculated, comparing time zero and 48 h, using a formula from Yue and co-workers.
% wound closure=(At=0h−At=Δh)/(At=0h)x (100)

MDA-MB-231 cells [2] = assay: Matrigel transwell invasion assay; format: cell-based, human; details: 20 μM, 22 h
Method: The effect of different concentrations of complex (4) 5, 10 μM and 20 μM on MDA-MB-231 tumor cell invasiveness was determined by the ability to transmigrate through a layer of matrigel in a transwell chamber (BD Biosciences) as described earlier. Wells were rehydrated with the addition of 1mL of warm (37°C) incomplete culture medium for 2 h. MDA-MB-231 cells (0.5 x 10^5/350 μL) were loaded on the top of matrigel in a DMEM incomplete medium. DMEM medium supplemented with 10% FBS was placed on the bottom chamber of the transwell units. Twenty-two hours later, cells that remained in the upper chamber were removed using a cotton swab and invasive cells were fixed with methanol and stained with 1% toluidine blue. The invaded cells were quantified by manual counting and inhibition ratio was expressed as % of control.

pBR322 plasmid DNA = assay: Agarose gel electrophoresis of plasmid DNA; format: binding; details: Ri 0.50, 18 h, 37°C
Method: Ten microliters of pBR322 plasmid DNA in a Tris-HCl buffer were incubated at 37°C for 18 h with molar ratios between 0.12 and 0.5. After incubation, 5 μL of each sample was separated by electrophoresis in a 1% agarose gel for 45 min at 100V using a Tris borate–EDTA buffer (TBE) and stained with ethidium bromide ([…] ethidium bromide per 40 mL agarose gel mixture). Samples of DNA with DMSO were used as controls. The DNA bands were visualized as an image using a UV light transilluminator (ChemiDoc MP, BioRad Laboratories).
The influence of the compounds on the tertiary structure of DNA was determined by their ability to modify the electrophoretic mobility of forms of pBR322 plasmid DNA (Fig 6C). Agarose gel electrophoresis was performed using pBR322 plasmid DNA in the absence and presence of the complexes. […] In Ri 0.12 and 0.25 complexes (1–3) show the corresponding open circular, linear and super coiled form. […] This means that the degree of super helicity of the DNA molecules has been altered, in the same way as that described previously for other coordination platinum(II) and palladium (II) compounds containing 7-azaindolyl ligand [36].

[3] = system: Bax, Caspase-3 and Bcl-2 gene expression in MDA-MB-231 cells; assay: RT-qPCR of apoptosis related genes; format: cell-based, human; details: 40 μM, 3 h
Method: MDA-MB-231 cells (1.0 x 10^6/plate) were incubated for 3 h with (20 and 40 μM) or without (control) the complex (4) in Petri dishes (6 cm) at 37°C in a humidified incubator with 5% CO2. Total RNA was extracted using Trizol reagent (Invitrogen). cDNAs were synthesized using Enhanced Avian RT First Strand Synthesis kit (Sigma-Aldrich, St. Louis, MO, USA). A Rotor-Gene 6000 real-time rotary analyzer (Corbett Life Science, Australia) was used to amplify both target and internal control templates (1 cycle at 95°C for 5 min and 40 amplification cycles at 95°C for 30 sec, 55°C for 30sec and 72°C for 45sec). In brief, 1 μL of reverse transcribed product template, 5 μL of SYBR Green JumpStart Taq ReadyMix (Sigma-Aldrich) and the gene-specific primer pairs at a final concentration of 500 nmol l^-1 for each primer, made 10 μL of reaction system. Primers used in the assays were: Caspase-3 (Forward: 5’GTG CTA CAA TGC CCC TGG AT3’; Reverse: 5’GCCCATTCATTTATTGCTTTC C3’), Bax (Forward: 5’CAT CCA GGA TCG AGC AGG3’; Reverse: 5’CGA TGC GCT TGA GAC ACT C3), Bcl-2 (Forward: 5’GGT GGG AGG GAG GAA GAA T3’; Reverse: 5’GCA GAG GCA TCA CAT CGA C3’) and β-actin (Forward: 5’GACGGCCAGGTCATCACCATT G3’; Reverse: 5’AGCACTGTGTTGGCGTACAGG 3’). Bax primers (NM_001291428.1) and Bcl-2 (NM_000633.2) were designed with Gene Runner available at http://generunner.net/ (version5.0.63 Beta), except for the primer Caspase-3 (NM_004346.3). For each gene, all samples were amplified simultaneously in duplicate in one assay run. The internal calibrator used as a basis to standardize the results of expression was the control group ΔCts average. Calibration was determined by ΔΔCt = ΔCt (sample) − ΔCt (calibrator). Gene expression was assessed by relative quantification, using the formula 2-ΔΔCt and β-actin as internal control. Data represent three assays in duplicate. A blank with water, primers and SYBR Green instead of template sample was performed.

`CC(=O)[O-].F[P-](F)(F)(F)(F)F.[Ru+2].c1ccc(-c2ccccn2)nc1.c1ccc(P(CCCCP(c2ccccc2)c2ccccc2)c2ccccc2)cc1` [Complex (4), [Ru(CH3CO2)(dppb)(bipy)]PF6] was tested, and the “effect on cell migration (wound healing)” value (MDA-MB-231 cells [1]) was “inhibited MDA-MB-231 cell migration in a concentration dependent fashion”, the “inhibition of invasion compared to control” value (MDA-MB-231 cells [2]) was “approximately 80%” and the “electrophoretic mobility of super coiled pBR322 band” value (pBR322 plasmid DNA) was “increased the electrophoretic mobility”. For the same compound, the Bax gene expression [3] was “upregulated”, the Bcl-2 gene expression [3] was “did not affect” and the Caspase-3 gene expression [3] was “upregulated”.
